# In US6503881B2 (priority 1996, dated 2003):
# Like-named read-outs stand apart in the source and are kept apart here.
# Tests used:
# Type in all cases: cell-based
# E. faecalis = settings: for MBI 26 MIC, +Teicoplanin: in combination with teicoplanin; for MIC in combination: Teicoplanin + MBI 26
# a bacterial strain = test system: a bacterial strain
# E. faecium = settings: for MBI 26 MIC, +Teicoplanin: in combination with teicoplanin; for MIC in combination: Teicoplanin + MBI 26
substance,measurement,setting,value
KWKSFIKKLTSAAKKVVTTAKPLISS [MBI 26],MIC Alone,"E. faecalis; E. faecalis 97040 VanB, agent alone",64 µg/mL
same,"MBI 26 MIC, +Teicoplanin",E. faecalis; E. faecalis 97040 VanB,8 µg/mL
same,MIC Alone,"E. faecalis; E. faecalis 97041 VanB, agent alone",64 µg/mL
same,"MBI 26 MIC, +Teicoplanin",E. faecalis; E. faecalis 97041 VanB,8 µg/mL
same,MIC Alone,"E. faecalis; E. faecalis 97042 VanB, agent alone",64 µg/mL
same,"MBI 26 MIC, +Teicoplanin",E. faecalis; E. faecalis 97042 VanB,8 µg/mL
same,MIC Alone,"E. faecalis; E. faecalis 97043 VanB, agent alone",64 µg/mL
same,"MBI 26 MIC, +Teicoplanin",E. faecalis; E. faecalis 97043 VanB,8 µg/mL
same,MIC Alone,E. faecalis; E. faecalis 97050 VanA,64 µg/mL
same,MIC in combination,E. faecalis; E. faecalis 97050 VanA,8 µg/mL
same,MIC Alone,E. faecalis; E. faecalis 97051 VanA,64 µg/mL
same,MIC in combination,E. faecalis; E. faecalis 97051 VanA,8 µg/mL
same,MIC Alone,E. faecalis; E. faecalis 97052 VanA,64 µg/mL
same,MIC in combination,E. faecalis; E. faecalis 97052 VanA,8 µg/mL
same,MIC Alone,E. faecalis; E. faecalis 97053 VanA,64 µg/mL
same,MIC in combination,E. faecalis; E. faecalis 97053 VanA,8 µg/mL
same,MIC Alone,E. faecalis; E. faecalis 97054 VanA,64 µg/mL
same,MIC in combination,E. faecalis; E. faecalis 97054 VanA,8 µg/mL
same,MIC Alone,E. faecalis; E. faecalis 97055 VanA,64 µg/mL
same,MIC in combination,E. faecalis; E. faecalis 97055 VanA,8 µg/mL
same,killing in time kill assay,a bacterial strain,greater killing than either peptide or antibiotic agent alone
same,MIC Alone,"E. faecium; E. faecium 97001 VanB, agent alone",64 µg/mL
same,"MBI 26 MIC, +Teicoplanin",E. faecium; E. faecium 97001 VanB,4 µg/mL
same,MIC Alone,"E. faecium; E. faecium 97002 VanB, agent alone",64 µg/mL
same,"MBI 26 MIC, +Teicoplanin",E. faecium; E. faecium 97002 VanB,1 µg/mL
same,MIC Alone,"E. faecium; E. faecium 97003 VanB, agent alone",64 µg/mL
same,"MBI 26 MIC, +Teicoplanin",E. faecium; E. faecium 97003 VanB,1 µg/mL
same,MIC Alone,"E. faecium; E. faecium 97005 VanB, agent alone",64 µg/mL
same,"MBI 26 MIC, +Teicoplanin",E. faecium; E. faecium 97005 VanB,2 µg/mL
same,MIC Alone,"E. faecium; E. faecium 97006 VanB, agent alone",64 µg/mL
same,"MBI 26 MIC, +Teicoplanin",E. faecium; E. faecium 97006 VanB,4 µg/mL
same,MIC Alone,"E. faecium; E. faecium 97007 VanB, agent alone",64 µg/mL
same,"MBI 26 MIC, +Teicoplanin",E. faecium; E. faecium 97007 VanB,1 µg/mL
same,MIC Alone,"E. faecium; E. faecium 97008 VanB, agent alone",64 µg/mL
same,"MBI 26 MIC, +Teicoplanin",E. faecium; E. faecium 97008 VanB,4 µg/mL
same,MIC Alone,"E. faecium; E. faecium 97009 VanB, agent alone",32 µg/mL
same,"MBI 26 MIC, +Teicoplanin",E. faecium; E. faecium 97009 VanB,1 µg/mL
same,MIC Alone,"E. faecium; E. faecium 97010 VanB, agent alone",64 µg/mL
same,"MBI 26 MIC, +Teicoplanin",E. faecium; E. faecium 97010 VanB,4 µg/mL
same,MIC Alone,"E. faecium; E. faecium 97011 VanB, agent alone",64 µg/mL
same,"MBI 26 MIC, +Teicoplanin",E. faecium; E. faecium 97011 VanB,4 µg/mL
same,MIC Alone,"E. faecium; E. faecium 97012 VanB, agent alone",64 µg/mL
same,"MBI 26 MIC, +Teicoplanin",E. faecium; E. faecium 97012 VanB,4 µg/mL
same,MIC Alone,"E. faecium; E. faecium 97013 VanB, agent alone",64 µg/mL
same,"MBI 26 MIC, +Teicoplanin",E. faecium; E. faecium 97013 VanB,8 µg/mL
same,MIC Alone,"E. faecium; E. faecium 97014 VanB, agent alone",32 µg/mL
same,"MBI 26 MIC, +Teicoplanin",E. faecium; E. faecium 97014 VanB,4 µg/mL
same,MIC Alone,"E. faecium; E. faecium 97015 VanB, agent alone",64 µg/mL
same,"MBI 26 MIC, +Teicoplanin",E. faecium; E. faecium 97015 VanB,4 µg/mL
same,MIC Alone,"E. faecium; E. faecium 97016 VanB, agent alone",64 µg/mL
same,"MBI 26 MIC, +Teicoplanin",E. faecium; E. faecium 97016 VanB,4 µg/mL
same,MIC Alone,E. faecium; E. faecium 97017 VanA,64 µg/mL
same,MIC in combination,E. faecium; E. faecium 97017 VanA,4 µg/mL
same,MIC Alone,E. faecium; E. faecium 97018 VanA,64 µg/mL
same,MIC in combination,E. faecium; E. faecium 97018 VanA,8 µg/mL
same,MIC Alone,E. faecium; E. faecium 97019 VanA,64 µg/mL
same,MIC in combination,E. faecium; E. faecium 97019 VanA,16 µg/mL
same,MIC Alone,E. faecium; E. faecium 97020 VanA,64 µg/mL
same,MIC in combination,E. faecium; E. faecium 97020 VanA,16 µg/mL
same,MIC Alone,E. faecium; E. faecium 97021 VanA,64 µg/mL
same,MIC in combination,E. faecium; E. faecium 97021 VanA,32 µg/mL
same,MIC Alone,E. faecium; E. faecium 97022 VanA,64 µg/mL
same,MIC in combination,E. faecium; E. faecium 97022 VanA,4 µg/mL
same,MIC Alone,E. faecium; E. faecium 97023 VanA,64 µg/mL
same,MIC in combination,E. faecium; E. faecium 97023 VanA,4 µg/mL
same,MIC Alone,E. faecium; E. faecium 97024 VanA,64 µg/mL
same,MIC in combination,E. faecium; E. faecium 97024 VanA,8 µg/mL
same,MIC Alone,E. faecium; E. faecium 97025 VanA,16 µg/mL
same,MIC in combination,E. faecium; E. faecium 97025 VanA,4 µg/mL
same,MIC Alone,E. faecium; E. faecium 97026 VanA,64 µg/mL
same,MIC in combination,E. faecium; E. faecium 97026 VanA,16 µg/mL
same,MIC Alone,E. faecium; E. faecium 97027 VanA,64 µg/mL
same,MIC in combination,E. faecium; E. faecium 97027 VanA,8 µg/mL
same,MIC Alone,E. faecium; E. faecium 97028 VanA,8 µg/mL
same,MIC in combination,E. faecium; E. faecium 97028 VanA,8 µg/mL
same,MIC Alone,E. faecium; E. faecium 97029 VanA,64 µg/mL
